Measurements published in patent US9890202B2, “Peptides based on the transmembrane domain of a toll-like receptor (TLR) for treatment of TLR-mediated diseases” (Yeda Research and Development Co. Ltd., priority 2010, dated 2018).
Ends that are not written are not given here.

Columns and labels:
[1] = system: mTLR1 TM peptides (fluorescein labeled donors); experiment: FRET between fluorescein and rhodamine labeled TM peptides in PC:Cholesterol LUVs; assay type: binding, mouse; conditions: rhodamine conjugated acceptor added to fluorescein TLR1 TM donors
Description: Large unilamellar vesicles (LUVs) composed of phosphatidylcholine (PC) and cholesterol (10:1, w/w), were prepared using the extrusion method as described previously (Cohen et al, 2008). The fluorescence experiments were performed with pairs of peptides using fluorescein labeled peptides as donors and rhodamine labeled peptides as acceptors. Fluorescence spectra were obtained at room temperature, with excitation set at 494 nm (10 nm slit) and emission scan at 500-600 nm (10 nm slits), by a Cary eclipse fluorescence spectrophotometer (Varian Inc., Palo Alto, Calif.). In a typical experiment, a fluorescein labeled peptide was first added from a stock solution in DMSO (final concentration of 0.1 μM peptide and 0.25% (v/v) DMSO) to a solution containing PC:Cholesterol LUVs (100 μM) in HEPES buffer. This was followed by the successive addition of rhodamine labeled peptides to a final concentration ranging from 0.025 to 0.4 μM. Fluorescence spectra were obtained before and after the addition of the rhodamine labeled peptides. Fluorescence values were corrected by subtracting the changes in emission obtained by adding HEPES only. […]
Fluorescence Resonance Energy Transfer (FRET) analysis was used for exploring the interactions of the synthetic TM peptides within large unilameler vesicles (LUVs). […]

[2] = XTT cytotoxicity assay; assay type: cell-based; conditions: mouse, RAW264.7 murine macrophages, RAW264.7 cells, 2 hours incubation, 0.78-100 μM, read-out: LC50 (Lethal Concentration at which 50% of cells die)
Description: 1×10^4 cells (RAW264.7 murine macrophages, ATCC® Number-TIB-71) per well were grown over night on a 96-well plate. The following day, the media were replaced with 90 μl fresh culture medium and 10 μl solution buffer containing different concentrations of the different peptides mTLR2 TM N′-CtoA (SEQ ID NO:88), mTLR2 TM C′-CtoA (SEQ ID NO:86), mTLR1 TM N′ (SEQ ID NO:77) and mTLR1 TM C′-CtoA (SEQ ID NO:83). Peptide concentrations range from 0.78-100 μM. The cells were then incubated for 2 hours before adding to each well 50 μl of 2,3-bis[2-methoxy-4-nitro-5-sulfophenyl]-2H-tetrazolium-5-carboxanilide inner salt (XTT) reaction solution (Biological Industries). Viability was determined as described previously (Papo et al., 2004 and Papo et al., 2006). The LC50 (the concentration at which 50% of the cells die) for each peptide was obtained from the dose-dependent cell viability curves.

[3] = system: TLR2; experiment: Murine model of acute septic shock caused by LTA (TLR2 hyperactivation); assay type: in vivo, mice; conditions: during the whole experiment
Description: To examine the effect of TLR TM peptides on acute septic shock driven by TLR2 hyperactivation we have used a murine model as previously described (Meng et al., 2004). Briefly, 12 weeks old C57 Black female mice (supplied by Harlan) were treated with 100 μg of LTA injected IP in a saline solution (pH 6.5) containing 200 μg/ml of D-galactoseamine (Calbiochem). Treated mice received two injections of peptide at doses of 1, 5 and 10 mg/kg. First injection was given at the time of LTA injection, second injection was given 2 hrs (1 mg/kg) or 12 hrs (5 and 10 mg/kg) later. Animals were monitored for survival for 96 hours after LTA injection. Peptides used for in-vivo experiments were treated twice with 20% acetic acid in order to replace the trifluoroacetate anion added during HPLC purification. For all groups n=8.
In order to test the activity of our peptides in-vivo, we have used a murine model for acute septic shock caused by hyperactivation of TLR2. Mice were injected i.p. with 100 μg of LTA and then treated with mTLR2 TM C′-CtoA peptide (SEQ ID NO:86) in different regimes (see materials and methods section (xi)) or with saline only.

[4] = system: PC3; experiment: Toxicity to PC3 cell line; assay type: cell-based, human; conditions: up to 100 μM (maximal concentration tested)
Description: (§1) We synthesized peptides corresponding to either the N-terminus or C-terminus domains of the TM domains of human TLR1, 2 and 5. Each TM domain was divided into two overlapping sequences (Table 2). Activity and toxicity experiments were performed on a peptide corresponding to the C-terminus domain of the TM domain of human TLR2, including the adjacent 5 amino acids from the putative intracellular domain (SEQ ID NO:83, hTLR2-C in Table 2 below, extended with two lysine residues at each of its termini to increase solubility). The peptide was not toxic to either PC3 or LNCaP cell lines at a concentration of up to 100 μM (the maximal concentration tested, data not shown).

[5] = system: TLR4; experiment: NFkB luciferase reporter in PC3 cells activated with LPS; assay type: cell-based, human; conditions: peptide 20 μM, LPS 1 μg/ml
Description: (§2) Cells were transfected with a luciferase plasmid under the transcriptional control of NFkB. Upon activation, NFkB trans-locates to the nucleus and induces the expression of luciferase. Cells were activated in the presence of LTA (50 μg/ml) or LPS (1 μg/ml) for 24 hours and were incubated for 2 hours with the hTLR2 TM C′ peptide (SEQ ID NO:83) ([…]) prior to the addition of the activator and washed twice with PBS. Detection of Luc expression was performed by the Steady-Glo assay kit.
(§3) The NFkB responsive element has been widely researched and is known to serve as a specific indication for the presence of the NFkB molecule inside the nucleus. Such a translocation occurs upon activation of the signaling cascade of TLRs, which leads to targeted transcription. This DNA element was introduced into a Luciferase expressing plasmid upstream to the gene thus generating a reporter plasmid for the presence of NFkB in the nucleus. Cells were transfected with the plasmid and 24 hours later were treated with LPS/LTA to induce the signaling cascade through TLR4 and TLR2, respectively. To validate activation, the levels of Luc expression were evaluated using the Steady-Glo kit (Promega) according to manufactures instructions.

[6] = system: LNCaP; experiment: Toxicity to LNCaP cell line; assay type: cell-based, human; conditions: up to 100 μM (maximal concentration tested)
Description: as §1

[7] = system: TLR2; experiment: NFkB luciferase reporter in PC3 cells activated with LTA; assay type: cell-based, human; conditions: peptide 20 μM, LTA 50 μg/ml
Description: as §2, §3

[8] = system: PC3 cells; experiment: mRNA expression of TGFβ and VEGF in cells activated with LPS/LTA; assay type: cell-based, human; conditions: peptide 20 μM, LPS/LTA stimulation
Description: FIGS. 13A-B show mRNA expression of TGFβ (B) and VEGF (A) in LNCaP and PC3 cells in the absence or presence of LPS/LTA and the peptide hTLR2 TM C′ (SEQ ID NO:83) at a concentration of 20 μM.
One of the main features of metastatic cells is their ability to influence their environment due to the secretion of various cytokines. Two of the most influential cytokines are VEGF which induces the formation of blood vessels, and TGFβ which e.g. induces tolerance of immune cells and inhibits apoptosis. We therefore determined the expression of the mRNA of these cytokines in the cells upon their activation with LPS and LTA and the effect of the peptide on the activation. […] These findings lead us to the hypothesis that the presence of the TLRs on PC3 cells contribute to the severity (aggressiveness) of the cancer and its ability to form metastases. Thus, the TLR TM peptides of the invention can be used as new diagnostic biomarkers, which can indicate the rate of growth and the ability of the cells to form metastases.

Row | Substance | CC50 at 2 h [2] | also measured
1 | GLRILLLKV-NH2 (not fully specified; printed as GLRILLLKV-NH2) [Cp, the core TM peptide of TCRα, negative control] | – | fluorescence signal decrease (FRET), negative control [1]: no significant fluorescence signal decrease
2 | KKLLTVTIGATMLVLAVTGAKK-NH2 [mTLR1 N′ TM] | > 100 µM | –
3 | KKLILLVGALCHHFHGLWKK-NH2 [mTLR2 C′ TM, kkLILLVGALCHHFHGLWkk] | 50 µM | –
4 | KKLAVTGAFLCLYFDLPWKK-NH2 [mTLR1 C′ TM, kkLAVTGAFLCLYFDLPWkk] | > 100 µM | –
5 | KKALVSGVAAALLLLILLVGKK-NH2 [mTLR2 N′ TM (C to A)] | > 100 µM | –
6 | KKLAVTGAFLALYFDLPWKK-NH2 [mTLR1 C′ TM (C to A)] | 50 µM | –
7 | KKLILLVGALAHHFHGLWKK-NH2 [mTLR2 C′ TM (C to A)] | 50 µM | adverse effects in treated mice [3]: no noticeable adverse effects
8 | KKLILLTGVLCHRFHGLWKK-NH2 [hTLR2 TM C′] | – | toxicity [4]: not toxic; inhibition of activation (Luc expression) [5]: could not inhibit; toxicity [6]: not toxic; inhibition of Luc expression [7]: 40%; levels of expression of TGFβ and VEGF mRNA [8]: drop in the levels of expression
9 | KKLAVTGAFLASYFDLPWKK-NH2 [mTLR1 C′ TM (C to A + L605S), kkLAVTGAFLASYFDLPWkk] | > 100 µM | –
